Data taken from US20190002935A1, “BACTERIAL CELLS WITH IMPROVED TOLERANCE TO POLYAMINES” (DANMARKS TEKNISKE UNIVERSITET, priority 2016, published 2019).

Tests used:
E. coli K-12 MG1655 = assay: Growth Profiler growth of K-12 MG1655 in a range of concentrations of other polyamines and amine-containing compounds; details: for screening concentration for which wild-type cells could achieve a growth rate of 0.2-0.3 h^−1: K-12 MG1655, uninhibited growth 0.7-0.9 h^−1 in M9 glucose minimal medium; for tlag (lag time) / μ (growth rate): Growth Profiler
Text: For data obtained with the Growth Profiler, improved image analysis was additionally implemented to obtain the updated growth parameters. In the Tables below, for values labeled in columns with “(1)”, integrated pixel values (which were later converted to OD600 using a calibration curve) were obtained directly from image analysis capabilities in the Growth Profiler software. In the Tables below, for values labeled in columns with “(2)”, a new algorithm was implemented that automatically detected the pixel integration region in each well in each image by locating the darkest pixels in each well. These values were converted to OD600 with a calibration run in the same manner. The new algorithm provided for an improved accuracy in determining the growth rate, since it eliminated a slowly oscillating frequency that was sometimes observed in the original data, potentially related to the practical setup when scanning the plates.
Additionally, each evolved isolate was tested for cross-tolerance toward other polyamines and amine-containing compounds of biotechnological interest. First, K-12 MG1655 was tested in the Growth Profiler screening format for growth in the presence of a range of concentrations of each compound: 1,3-diaminopropane, 1,5-diaminopentane (cadaverine), spermidine, citrulline, ethylenediamine, carnitine, and ornithine. Variable concentrations of these compounds elicited growth inhibition in E. coli K-12 MG1655 (Table 36). […] The compounds citrulline and ornithine are polyamine-containing amino acids. […] Among the only exceptions were PUTR7-1 in citrulline and PUTR5-1 and PUTR6-2 in ornithine.

[1] = system: Escherichia coli K-12 MG1655; assay: Screening for tolerance in wild-type cells (Biolector, varying concentrations of putrescine or HMDA); type: cell-based; details: for mean (1) tlag (lag time) / mean (1) μ (growth rate) / mean (2) tlag (lag time) / mean (2) μ (growth rate): K-12 MG1655; for mean (1) tlag (lag time) / mean (1) μ (growth rate): software version (1); for mean (2) tlag (lag time) / mean (2) μ (growth rate): software version (2); for maximum measured concentration at which K-12 MG1655 can grow: M9+1% glucose
Procedure: Escherichia coli K-12 MG1655 was grown overnight in M9 minimal medium+1% glucose and subcultured the following morning to an initial OD600 of 0.05 in M9+1% glucose. Cells were grown to mid-exponential phase (OD600 0.7-1.0) and were back-diluted with fresh medium to an OD600 of 0.7. […] The culture volume in each well was 1.4 mL.
For data obtained with the Biolector microbioreactor system, self-baselined growth series were imported directly into a custom software platform that automatically detects growth phases and exports growth rates and lag times.

[2] = K-12 MG1655, 5 g/L of the compound
[3] = K-12 MG1655, 10 g/L of the compound
[4] = K-12 MG1655, 20 g/L of the compound
[5] = K-12 MG1655, 25 g/L of the compound
[6] = K-12 MG1655, 30 g/L of the compound
[7] = K-12 MG1655, 40 g/L of the compound
[8] = K-12 MG1655, 45 g/L of the compound
[9] = K-12 MG1655, 50 g/L of the compound
[10] = K-12 MG1655, 60 g/L of the compound
[11] = K-12 MG1655, 75 g/L of the compound

NCCCCCN [cadaverine, pentane-1,5-diamine]
screening concentration for which wild-type cells could achieve a growth rate of 0.2-0.3 h^−1 (E. coli K-12 MG1655): 35 g/L

NCCCCCCN [HMDA, hexane-1,6-diamine]
mean (1) tlag (lag time) ([1]; 10 g/L): 1.3 h
mean (1) μ (growth rate) ([1]; 10 g/L): 0.806 h⁻¹
mean (2) tlag (lag time) ([1]; 10 g/L): 0.8 h
mean (2) μ (growth rate) ([1]; 10 g/L): 0.605 h⁻¹
mean (1) tlag (lag time) ([1]; 20 g/L): 1.4 h
mean (1) μ (growth rate) ([1]; 20 g/L): 0.601 h⁻¹
mean (2) tlag (lag time) ([1]; 20 g/L): 0.3 h
mean (2) μ (growth rate) ([1]; 20 g/L): 0.394 h⁻¹
mean (1) tlag (lag time) ([1]; 30 g/L): 1.7 h
mean (1) μ (growth rate) ([1]; 30 g/L): 0.475 h⁻¹
mean (2) tlag (lag time) ([1]; 30 g/L): 0.0 h
mean (2) μ (growth rate) ([1]; 30 g/L): 0.241 h⁻¹
mean (1) tlag (lag time) ([1]; 40 g/L): 2.6 h
mean (1) μ (growth rate) ([1]; 40 g/L): 0.216 h⁻¹
mean (2) tlag (lag time) ([1]; 40 g/L): 2.3 h
mean (2) μ (growth rate) ([1]; 40 g/L): 0.136 h⁻¹
mean (1) μ (growth rate) ([1]; 50 g/L): 0.000 h⁻¹
mean (2) μ (growth rate) ([1]; 50 g/L): 0.000 h⁻¹
mean (1) μ (growth rate) ([1]; 75 g/L): 0.000 h⁻¹
mean (2) μ (growth rate) ([1]; 75 g/L): 0.000 h⁻¹
mean (1) μ (growth rate) ([1]; 100 g/L): 0.000 h⁻¹
mean (2) μ (growth rate) ([1]; 100 g/L): 0.000 h⁻¹
concentration at which zero/no growth was detected ([1]; K-12 MG1655, M9+1% glucose, Biolector): 50 g/L
maximum measured concentration at which K-12 MG1655 can grow ([1]; Biolector): 40 g/L

NCCCCNCCCN [spermidine, N-(3-aminopropyl)-1,4-diaminobutane]
screening concentration for which wild-type cells could achieve a growth rate of 0.2-0.3 h^−1 (E. coli K-12 MG1655): 40 g/L

NCCCN [1,3-diaminopropane, propane-1,3-diamine]
screening concentration for which wild-type cells could achieve a growth rate of 0.2-0.3 h^−1 (E. coli K-12 MG1655): 35 g/L

NCCC[C@H](N)C(=O)O [ornithine]
tlag (lag time) (E. coli K-12 MG1655; [2]): 8.2 h
μ (growth rate) (E. coli K-12 MG1655; [2]): 0.439 h⁻¹
tlag (lag time) (E. coli K-12 MG1655; [3]): 17.1 h
μ (growth rate) (E. coli K-12 MG1655; [3]): 0.260 h⁻¹
tlag (lag time) (E. coli K-12 MG1655; [4]): 44.2 h
μ (growth rate) (E. coli K-12 MG1655; [4]): 0.214 h⁻¹
tlag (lag time) (E. coli K-12 MG1655; [5]): 53.2 h
μ (growth rate) (E. coli K-12 MG1655; [5]): 0.150 h⁻¹
tlag (lag time) (E. coli K-12 MG1655; [6]): 82.6 h
μ (growth rate) (E. coli K-12 MG1655; [6]): 0.076 h⁻¹
μ (growth rate) (E. coli K-12 MG1655; [7]): 0.000 h⁻¹
screening concentration for which wild-type cells could achieve a growth rate of 0.2-0.3 h^−1 (E. coli K-12 MG1655): 10 g/L

NCCCCN [putrescine, butane-1,4-diamine]
mean (1) tlag (lag time) ([1]; 10 g/L): 1.4 h
mean (1) μ (growth rate) ([1]; 10 g/L): 0.698 h⁻¹
mean (2) tlag (lag time) ([1]; 10 g/L): 1.0 h
mean (2) μ (growth rate) ([1]; 10 g/L): 0.538 h⁻¹
mean (1) tlag (lag time) ([1]; 20 g/L): 2.2 h
mean (1) μ (growth rate) ([1]; 20 g/L): 0.577 h⁻¹
mean (2) tlag (lag time) ([1]; 20 g/L): 1.5 h
mean (2) μ (growth rate) ([1]; 20 g/L): 0.392 h⁻¹
mean (1) tlag (lag time) ([1]; 30 g/L): 3.4 h
mean (1) μ (growth rate) ([1]; 30 g/L): 0.350 h⁻¹
mean (2) tlag (lag time) ([1]; 30 g/L): 6.2 h
mean (2) μ (growth rate) ([1]; 30 g/L): 0.317 h⁻¹
mean (1) tlag (lag time) ([1]; 40 g/L): 12.3 h
mean (1) μ (growth rate) ([1]; 40 g/L): 0.108 h⁻¹
mean (2) tlag (lag time) ([1]; 40 g/L): 25.8 h
mean (2) μ (growth rate) ([1]; 40 g/L): 0.148 h⁻¹
mean (1) tlag (lag time) ([1]; 50 g/L): 19.8 h
mean (1) μ (growth rate) ([1]; 50 g/L): 0.023 h⁻¹
mean (2) μ (growth rate) ([1]; 50 g/L): 0.000 h⁻¹
mean (1) μ (growth rate) ([1]; 75 g/L): 0.000 h⁻¹
mean (2) μ (growth rate) ([1]; 75 g/L): 0.000 h⁻¹
mean (1) μ (growth rate) ([1]; 100 g/L): 0.000 h⁻¹
mean (2) μ (growth rate) ([1]; 100 g/L): 0.000 h⁻¹
maximum measured concentration at which K-12 MG1655 can grow ([1]; Biolector): 40 g/L

NCCN [ethylenediamine, 1,2-diaminoethane]
tlag (lag time) (E. coli K-12 MG1655; [2]): 7.0 h
μ (growth rate) (E. coli K-12 MG1655; [2]): 0.689 h⁻¹
tlag (lag time) (E. coli K-12 MG1655; [3]): 8.5 h
μ (growth rate) (E. coli K-12 MG1655; [3]): 0.614 h⁻¹
tlag (lag time) (E. coli K-12 MG1655; [4]): 32.9 h
μ (growth rate) (E. coli K-12 MG1655; [4]): 0.152 h⁻¹
μ (growth rate) (E. coli K-12 MG1655; [5]): 0.000 h⁻¹
screening concentration for which wild-type cells could achieve a growth rate of 0.2-0.3 h^−1 (E. coli K-12 MG1655): 18 g/L

NC(=O)NCCC[C@H](N)C(=O)O [citrulline]
tlag (lag time) (E. coli K-12 MG1655; [5]): 6.7 h
μ (growth rate) (E. coli K-12 MG1655; [5]): 0.759 h⁻¹
tlag (lag time) (E. coli K-12 MG1655; [6]): 7.0 h
μ (growth rate) (E. coli K-12 MG1655; [6]): 0.702 h⁻¹
tlag (lag time) (E. coli K-12 MG1655; [7]): 7.5 h
μ (growth rate) (E. coli K-12 MG1655; [7]): 0.677 h⁻¹
tlag (lag time) (E. coli K-12 MG1655; [8]): 8.6 h
μ (growth rate) (E. coli K-12 MG1655; [8]): 0.508 h⁻¹
tlag (lag time) (E. coli K-12 MG1655; [9]): 9.2 h
μ (growth rate) (E. coli K-12 MG1655; [9]): 0.538 h⁻¹
tlag (lag time) (E. coli K-12 MG1655; [10]): 10.4 h
μ (growth rate) (E. coli K-12 MG1655; [10]): 0.437 h⁻¹
tlag (lag time) (E. coli K-12 MG1655; [11]): 12.4 h
μ (growth rate) (E. coli K-12 MG1655; [11]): 0.355 h⁻¹
screening concentration for which wild-type cells could achieve a growth rate of 0.2-0.3 h^−1 (E. coli K-12 MG1655): 80 g/L

C[N+](C)(C)CC(O)CC(=O)[O-] (centres unmarked) [carnitine]
tlag (lag time) (E. coli K-12 MG1655; [2]): 6.6 h
μ (growth rate) (E. coli K-12 MG1655; [2]): 0.786 h⁻¹
tlag (lag time) (E. coli K-12 MG1655; [3]): 7.5 h
μ (growth rate) (E. coli K-12 MG1655; [3]): 0.545 h⁻¹
μ (growth rate) (E. coli K-12 MG1655; [4]): 0.000 h⁻¹

N=C(N)NCCCCN [Agmatine, 1-amino-4-guanidinobutane]
tlag (lag time) (E. coli K-12 MG1655; [3]): 5.3 h
μ (growth rate) (E. coli K-12 MG1655; [3]): 0.700 h⁻¹
tlag (lag time) (E. coli K-12 MG1655; [4]): 5.6 h
μ (growth rate) (E. coli K-12 MG1655; [4]): 0.630 h⁻¹
tlag (lag time) (E. coli K-12 MG1655; [5]): 6.1 h
μ (growth rate) (E. coli K-12 MG1655; [5]): 0.648 h⁻¹
tlag (lag time) (E. coli K-12 MG1655; [6]): 6.3 h
μ (growth rate) (E. coli K-12 MG1655; [6]): 0.610 h⁻¹
tlag (lag time) (E. coli K-12 MG1655; [7]): 7.0 h
μ (growth rate) (E. coli K-12 MG1655; [7]): 0.632 h⁻¹
tlag (lag time) (E. coli K-12 MG1655; [9]): 7.9 h
μ (growth rate) (E. coli K-12 MG1655; [9]): 0.523 h⁻¹
concentration up to which the compound was non-toxic (E. coli K-12 MG1655; K-12 MG1655, Growth Profiler): up to 50 g/L
